From publication PMC6226472, “Cardol triene inhibits dengue infectivity by targeting kl loops and preventing envelope fusion” (Scientific Reports, 2018)
Like-named read-outs stand apart in the source and are kept apart here.

Legend:
DENV2 NGC = assay: Efficacy study (EC50) in DENV2 infected Vero cells, plaque titration; assay type: cell-based, Dengue virus; conditions: for EC50: DENV2 NGC (M.O.I. of 0.1) infected Vero cells, plaque titration, 3 days; for TI (therapeutic index, CC50/EC50): Vero CC50 / DENV2 EC50
Description: Next, we studied the efficacies (EC50) of the phenolic lipid homologues against DENV2 infectivity in Vero cells. Briefly, compounds at 10 different concentrations were added to DENV2-infected Vero cells (M.O.I. of 0.1) during and post infection and the viral inhibition was determined by plaque titration. […] Noted that anacardic acids were major components of CNSL extracts and all homologues were purified directly from CNSL itself.
Next, each homologue was analyzed for effective concentration (EC50). Vero (5 × 10^4) cells were seeded, and infected with DENV2 (M.O.I. of 0.1) as previously described. Phenolic lipid mixtures and homologues were serially diluted in DMSO to the final concentrations as follows; 0, 0.5, 1, 1.5, 2, 2.5, 5, 7.5, 10, 25, and 50 µM. DMSO at the concentration of 1% was used as a mock treatment referring to 100% infection. Infected cells were treated with the designated compounds during and post infection. Supernatants were collected at 3 days after infection for analysis of virion production by plaque titration. Non-linear regression analysis was used to determine the effective concentrations. […] The therapeutic index (TI) was a ration of CC50/EC50 of the compound.

[1] = Cytotoxic concentration (CC50), MTS; assay type: cell-based; conditions: African green monkey, Vero cells
Description: Cytotoxic concentrations (CC50) were also studied using Vero cells. Briefly, the 10^4 cells were seeded into each well of 96-well plates. After an overnight incubation, phenolic lipids were serially diluted in DMSO to the final concentrations as follows; 25, 50, 100, 200, 300, 400, and 500 µM. Each concentration was performed in quadruplicates. DMSO at 1% was used as a mock treatment referring to 100% cell viability. Cells were incubated for 48 h before cell viability was accessed using CellTiler 96® Aqueous One Solution Cell Proliferation Assay kit (Promega, Wisconsin, USA). Non-linear regression analysis was used to determine cytotoxic concentrations (CC50) of each experiment.

AGS = tested on: AGS; parameters: method as in PMID 25726174; conditions: cited from earlier work
hepatitis C virus (HCV) = tested on: hepatitis C virus (HCV); parameters: method as in PMID 25658101; conditions: cited from earlier work
K562 = tested on: K562; parameters: method as in PMID 25726174; conditions: cited from earlier work
Solubility in DMSO = assay type: physicochemical
[2] = tested on: BHK-21/DENV2 replicon cells; assay: Replicon inhibition study, RT-qPCR of DENV2 NS1; assay type: cell-based, Dengue virus; conditions: 72 h
Description: We analyzed the replication inhibition using BHK-21/DENV2 replicon cells stably expressed the non-structural proteins. Cardol triene at 10 µM and 20 µM were added to the replicon cells for 72 h and the replication inhibition was accessed by RT-qPCR of DENV2 NS1. Ribavirin, a known inhibitor of flaviviral replication, was used as a positive inhibition control. […] Replicon cell viability under cardol triene treatment was also analyzed using an MTS assay. […] Therefore, we concluded that cardol triene inhibited DENV RNA replicon replication, potentially in dose-dependent manner.
BHK-21 (5 × 10^4) cells expressing DENV-2 replicon (BHK-21/DENV2)[44] were seeded as previously described. Cardol triene at 10 µM and 20 µM, DMSO, and ribavirin (TargetMol, USA) were added to the replicon cells and incubated at 37 °C for 3 days. Cells lysates were collected and viral RNA was quantified by RT-qPCR as previously described. Data were reported as percent inhibition compared with ribavirin. Three biological replicates were performed and results were means and SEM of all replicates.

[3] = Dengue virus, 72 h, read-out: EC50

SMILES	CC50 at 48 h [1] [µM]	EC50 (DENV2 NGC; [3]) [µM]	TI (therapeutic index, CC50/EC50) (DENV2 NGC)	further results
CCC/C=C/C/C=C/CCCCCCCc1cccc(O)c1C(=O)O [Anacardic acid diene, 6-[8(Z), 11(Z)-pentadecadienyl]salicylic acid]	112 ± 8.57			EC50 (DENV2 NGC): Not inhibited
CCCCCC/C=C\CCCCCCCc1cccc(O)c1C(=O)O [Anacardic acid monoene, 6-[8(Z)-pentadecenyl]salicylic acid]	74 ± 0.85	12.6 ± 0.84	5.88	
CCCCCCCCCCCCCCCc1cccc(O)c1C(=O)O [Anacardic acid saturated, 6-pentadecylsalicylic acid]	66.3 ± 1.58	4.31 ± 1.17	15.39	CC50 (AGS): 41.6 µM; EC50 (hepatitis C virus (HCV)): 7.25 µM; CC50 (K562): 25.4 µM
C=CC/C=C/C/C=C/CCCCCCCc1cccc(O)c1C(=O)O [Anacardic acid triene, 6-[8(Z), 11(Z), 14-pentadecatrienyl]salicylic acid]	115 ± 14.1	7.48 ± 2.14	15.38	
CCCCCCCCCCCCCCCc1cccc(O)c1 [Cardanol saturated]	43.5 ± 1.1	5.89 ± 2.83	7.39	
C=CC/C=C/C/C=C/CCCCCCCc1cccc(O)c1 [Cardanol triene, 3-[8(Z), 11(Z), 14-pentadecatrienyl]phenol]				solubility in DMSO (Solubility in DMSO): insoluble
CCCCCCCCCCCCCCCc1cc(O)cc(O)c1 [Cardol saturated]	58.75 ± 0.43	12.7 ± 0.67	4.62	
NC(=O)c1ncn([C@@H]2O[C@H](CO)[C@@H](O)[C@H]2O)n1 [ribavirin, reference compound]				DENV2 RNA inhibition ([2]; 10 µM): 98.42 ± 0.68%; DENV2 RNA inhibition ([2]; 20 µM): 98.09 ± 0.72%
